Source: US20240409566A1, “DELIVERY OF THERAPEUTIC ALKALOID COMPOUNDS” (priority 2022, published 2024)

Legend:
[1] = Plasma stability assay, human plasma; format: in vitro ADME
Protocol: (§1) Compound stability in rat and human plasma was measured by incubating compound with rat or human plasma at 37° C. in a microwell plate for sequential time points, monitoring pro-drug disappearance and metabolite appearance (mesembranol or 6-epi-mesembranol). A 2 mM stock solution of test compounds were prepared by dissolving appropriate amount of compounds in DMSO. The 2 mM stock was further diluted 200-folds in rat or human plasma to attain a final concentration of 10 μM respectively (0.5% DMSO). 50 μL aliquots of positive controls and test compounds spiked into rat or human plasma (n=2) were added to a pre-warmed plate (37° C.) and shaken at 50 rpm. At each respective time point, the reaction was stopped by adding 500 μL of acetonitrile containing internal standards (100 nM aprozolam, 200 nM caffeine, 100 nM tolbutamide). All samples were vortexed for 10 minutes, followed by centrifugation at 3,220 g for 30 minutes to precipitate proteins. 100 μL of the supernatant is transferred to a new plate. The supernatant will be diluted with ultrapure water according to the LC-MS signal response and peak shape. The concentrations of test compounds and positive control were quantified in the test samples using LC-MS/MS. Results reported as % of prodrug compound remaining at time point, and % of metabolite (mesembranol or 6-epi-mesembranol,) accumulated at time point.

[2] = Plasma stability assay, rat plasma; format: in vitro ADME
Protocol: as §1

[3] = human plasma, 37° C., 10 μM, 0 min, % prodrug remaining
[4] = human plasma, 37° C., 10 μM, 10 min, % prodrug remaining
[5] = human plasma, 37° C., 10 μM, 30 min, % prodrug remaining
[6] = human plasma, 37° C., 10 μM, 60 min, % prodrug remaining
[7] = human plasma, 37° C., 10 μM, 120 min, % prodrug remaining
[8] = human plasma, 37° C., 10 μM, 240 min, % prodrug remaining
[9] = rat plasma, 37° C., 10 μM, 0 min, % prodrug remaining
[10] = rat plasma, 37° C., 10 μM, 10 min, % prodrug remaining
[11] = rat plasma, 37° C., 10 μM, 30 min, % prodrug remaining
[12] = rat plasma, 37° C., 10 μM, 60 min, % prodrug remaining
[13] = rat plasma, 37° C., 10 μM, 120 min, % prodrug remaining
[14] = rat plasma, 37° C., 10 μM, 240 min, % prodrug remaining

Structure (SMILES)	Prodrug (%) ([1]; human, 0 min, 10 µM)	Prodrug (%) ([1]; human, 10 min, 10 µM)	Prodrug (%) ([1]; human, 30 min, 10 µM)	Prodrug (%) ([1]; human, 60 min, 10 µM)	Prodrug (%) ([1]; human, 120 min, 10 µM)	Prodrug (%) ([1]; human, 240 min, 10 µM)	Prodrug (%) ([2]; rat, 0 min, 10 µM)	Prodrug (%) ([2]; rat, 10 min, 10 µM)	Prodrug (%) ([2]; rat, 30 min, 10 µM)	Prodrug (%) ([2]; rat, 60 min, 10 µM)	Prodrug (%) ([2]; rat, 120 min, 10 µM)	Prodrug (%) ([2]; rat, 240 min, 10 µM)	also measured
CCCCC(=O)OC1CC[C@@]2(c3ccc(OC)c(OC)c3)CCN(C)[C@H]2C1 (stereo in doubt) [Compound 205, (3aS,6S,7aS)-3a-(3,4-dimethoxyphenyl)-1-methyloctahydro-1H-indol-6-yl pentanoate]	100.0	96.7	90.7	84.3	80.3	67.9	100.0	0.6	0.1	0.1	0.1	0.0	–
CCCC(=O)OC1CC[C@@]2(c3ccc(OC)c(OC)c3)CCN(C)[C@H]2C1 (stereo in doubt) [Compound 206, (3aS,6S,7aS)-3a-(3,4-dimethoxyphenyl)-1-methyloctahydro-1H-indol-6-yl butyrate]	100.0	>99.0	92.7	83.8	79.1	68.0	100.0	0.8	0.1	0.0	0.0	0.0	–
COc1ccc([C@@]23CC[C@H](OC(=O)N(C)C)C[C@@H]2N(C)CC3)cc1OC [Compound 101, (3aS,6S,7aS)-3a-(3,4-dimethoxyphenyl)-1-methyloctahydro-1H-indol-6-yl dimethylcarbamate]	100.00	>99.0	>99.0	>99.0	>99.0	>99.0	100.0	88.7	95.0	98.2	99.4	92.2	–
COc1ccc([C@@]23CC[C@H](OC(=O)C(C)(C)C)C[C@@H]2N(C)CC3)cc1OC [Compound 102, (3aS,6S,7aS)-3a-(3,4-dimethoxyphenyl)-1-methyloctahydro-1H-indol-6-yl pivalate]	100.00	97.52	95.20	92.88	>99.0	94.80	100.0	>99.0	77.8	68.1	42.3	15.4	–
COc1ccc([C@@]23CC[C@H](OC(=O)C(C)C)C[C@@H]2N(C)CC3)cc1OC [Compound 103, (3aS,6S,7aS)-3a-(3,4-dimethoxyphenyl)-1-methyloctahydro-1H-indol-6-yl isobutyrate]	100.00	>99.0	>99.0	97.28	97.48	87.17	100.0	56.1	12.2	0.6	0.1	0.0	–
COc1ccc([C@@]23CC[C@H](OC(=O)c4ccccc4)C[C@@H]2N(C)CC3)cc1OC [Compound 104, (3aS,6S,7aS)-3a-(3,4-dimethoxyphenyl)-1-methyloctahydro-1H-indol-6-yl benzoate]	–	–	–	–	–	–	–	–	–	–	–	–	Prodrug (%) [1, 3]: 100.00%; Prodrug (%) [1, 4]: >99.0%; Prodrug (%) [1, 5]: 97.34%; Prodrug (%) [1, 6]: 97.40%; Prodrug (%) [1, 7]: 95.15%; Prodrug (%) [1, 8]: 90.28%; Prodrug (%) [2, 9]: 100.0%; Prodrug (%) [2, 10]: 62.0%; Prodrug (%) [2, 11]: 27.5%; Prodrug (%) [2, 12]: 7.5%; Prodrug (%) [2, 13]: 1.4%; Prodrug (%) [2, 14]: 0.6%
CCCCC(=O)O[C@H]1CC[C@@]2(c3ccc(OC)c(OC)c3)CCN(C)[C@H]2C1 [Compound 105, (3aS,6S,7aS)-3a-(3,4-dimethoxyphenyl)-1-methyloctahydro-1H-indol-6-yl pentanoate]	100.00	96.40	89.85	81.61	72.68	50.16	100.0	10.8	0.5	0.1	0.0	0.0	–
CCCC(=O)O[C@H]1CC[C@@]2(c3ccc(OC)c(OC)c3)CCN(C)[C@H]2C1 [Compound 106, (3aS,6S,7aS)-3a-(3,4-dimethoxyphenyl)-1-methyloctahydro-1H-indol-6-yl butyrate]	100.00	93.04	87.33	79.39	67.04	50.22	100.0	39.9	2.75	0.7	0.2	0.1	–
COc1ccc([C@@]23CC[C@@H](OC(=O)N(C)C)C[C@@H]2N(C)CC3)cc1OC [Compound 201, (3aS,6R,7aS)-3a-(3,4-dimethoxyphenyl)-1-methyloctahydro-1H-indol-6-yl dimethylcarbamate]	–	–	–	–	–	–	–	–	–	–	–	–	Prodrug (%) [1, 3]: 100.0%; Prodrug (%) [1, 4]: 96.3%; Prodrug (%) [1, 5]: 97.0%; Prodrug (%) [1, 6]: 94.8%; Prodrug (%) [1, 7]: 97.7%; Prodrug (%) [1, 8]: >99.0%; Prodrug (%) [2, 9]: 100.0%; Prodrug (%) [2, 10]: >99.0%; Prodrug (%) [2, 11]: >99.0%; Prodrug (%) [2, 12]: >99.0%; Prodrug (%) [2, 13]: >99.0%; Prodrug (%) [2, 14]: 97.6%
COc1ccc([C@@]23CC[C@@H](OC(=O)C(C)(C)C)C[C@@H]2N(C)CC3)cc1OC [Compound 202, (3aS,6R,7aS)-3a-(3,4-dimethoxyphenyl)-1-methyloctahydro-1H-indol-6-yl pivalate]	100.0	>99.0	>99.0	96.3	94.7	88.1	100.0	80.6	38.9	9.6	0.6	0.0	–
COc1ccc([C@@]23CC[C@@H](OC(=O)C(C)C)C[C@@H]2N(C)CC3)cc1OC [Compound 203, (3aS,6R,7aS)-3a-(3,4-dimethoxyphenyl)-1-methyloctahydro-1H-indol-6-yl isobutyrate]	100.0	0.1	0.1	0.1	0.1	0.1	100.0	0.1	0.1	0.0	0.0	0.0	–
COc1ccc([C@@]23CC[C@@H](OC(=O)c4ccccc4)C[C@@H]2N(C)CC3)cc1OC [Compound 204, (3aS,6R,7aS)-3a-(3,4-dimethoxyphenyl)-1-methyloctahydro-1H-indol-6-yl benzoate]	–	–	–	–	–	–	–	–	–	–	–	–	Prodrug (%) [1, 3]: 100.00%; Prodrug (%) [1, 4]: 97.40%; Prodrug (%) [1, 5]: 94.26%; Prodrug (%) [1, 6]: 92.22%; Prodrug (%) [1, 7]: 93.59%; Prodrug (%) [1, 8]: 91.87%; Prodrug (%) [2, 9]: 100.0%; Prodrug (%) [2, 10]: 38.7%; Prodrug (%) [2, 11]: 5.9%; Prodrug (%) [2, 12]: 0.6%; Prodrug (%) [2, 13]: 0.1%; Prodrug (%) [2, 14]: 0.0%
COc1ccc([C@@]23CC[C@@H](OCOC(=O)C(C)(C)C)C[C@@H]2N(C)CC3)cc1OC [Compound 207, (((3aS,6R,7aS)-3a-(3,4-dimethoxyphenyl)-1-methyloctahydro-1H-indol-6-yl)oxy)methyl pivalate]	100.0	42.0	6.9	1.6	0.7	0.1	100.0	26.5	0.5	0.0	0.0	0.0	–
